Test results taken from BindingDB's records for doi:10.1021/jm970389+ (Abbott Laboratories, 1998).

assay: Binding potency against Platelet activating factor (PAF) receptor using [3H]C18-PAF as radioligand on rabbit platelet membranes

SMILES	Ki [nM]
COC(=O)c1cc(Br)cc2c1c(C(=O)c1ccc(Cn3c(C)nc4cnccc43)cc1)cn2C(=O)N(C)C [6-Bromo-1-dimethylcarbamoyl-3-[4-(2-methyl-imidazo[4,5-c]pyridin-1-ylmethyl)-benzoyl]-1H-indole-4-carboxylic acid methyl ester]	1.4
Cc1nc2ccncc2n1Cc1ccc(C(=O)c2cn(C(=O)N(C)C)c3cc(-c4ccc(F)cc4)ccc23)cc1 [6-(4-Fluoro-phenyl)-3-[4-(2-methyl-imidazo[4,5-c]pyridin-3-ylmethyl)-benzoyl]-indole-1-carboxylic acid dimethylamide]	610
COC(=O)c1cccc2c1c(C(=O)Cc1ccc(-n3c(C)nc4cnccc43)cc1)cn2C(=O)N(C)C [1-Dimethylcarbamoyl-3-{2-[4-(2-methyl-imidazo[4,5-c]pyridin-1-yl)-phenyl]-acetyl}-1H-indole-4-carboxylic acid methyl ester]	0.63
Cc1nc2ccn(Cc3ccc(C(=O)c4cn(C(=O)N(C)C)c5cc(-c6ccc(F)cc6)ccc45)cc3)cc-2n1 [6-(4-Fluoro-phenyl)-3-[4-(2-methyl-imidazo[4,5-c]pyridin-5-ylmethyl)-benzoyl]-indole-1-carboxylic acid dimethylamide]	> 1000
COC(=O)c1cccc2c1c(C(=O)c1ccc(Cn3c(C)nc4cnccc43)s1)cn2C(=O)N(C)C [1-Dimethylcarbamoyl-3-[5-(2-methyl-imidazo[4,5-c]pyridin-1-ylmethyl)-thiophene-2-carbonyl]-1H-indole-4-carboxylic acid methyl ester]	8.2
Cc1nc2cnccc2n1Cc1ccc(C(=O)c2cn(C(=O)N(C)C)c3cccc(C(=O)N(C)C)c23)cc1 [3-[4-(2-Methyl-imidazo[4,5-c]pyridin-1-ylmethyl)-benzoyl]-indole-1,4-dicarboxylic acid bis-dimethylamide]	11
CCOC(=O)c1cccc2c1c(C(=O)c1ccc(Cn3c(C)nc4cnccc43)cc1)cn2C(=O)N(C)C [1-Dimethylcarbamoyl-3-[4-(2-methyl-imidazo[4,5-c]pyridin-1-ylmethyl)-benzoyl]-1H-indole-4-carboxylic acid ethyl ester]	5.2
Cc1nc2cnccc2n1CCCN(C)CC(=O)c1cn(C(=O)N(C)C)c2cc(-c3ccc(F)cc3)ccc12 [6-(4-Fluoro-phenyl)-3-(2-{methyl-[3-(2-methyl-imidazo[4,5-c]pyridin-1-yl)-propyl]-amino}-acetyl)-indole-1-carboxylic acid dimethylamide]	140
Cc1nc2cnccc2n1Cc1ccc(C(=O)c2cn(C(=O)N(C)C)c3cccc(OC(=O)N(C)C)c23)cc1F [Dimethyl-carbamic acid 1-dimethylcarbamoyl-3-[3-fluoro-4-(2-methyl-imidazo[4,5-c]pyridin-1-ylmethyl)-benzoyl]-1H-indol-4-yl ester]	31
Cc1nc2cnccc2n1Cc1ccc(C(=O)c2cn(C(=O)N(C)C)c3cccc(C(=O)OC(C)C)c23)cc1 [1-Dimethylcarbamoyl-3-[4-(2-methyl-imidazo[4,5-c]pyridin-1-ylmethyl)-benzoyl]-1H-indole-4-carboxylic acid isopropyl ester]	4.7
COC(=O)c1cccc2c1c(S(=O)(=O)c1ccc(Cn3c(C)nc4cnccc43)cc1)cn2C(=O)N(C)C [1-Dimethylcarbamoyl-3-[4-(2-methyl-imidazo[4,5-c]pyridin-1-ylmethyl)-benzenesulfonyl]-1H-indole-4-carboxylic acid methyl ester]	13
COC(=O)c1cccc2c1c(C(=O)c1ccc(Cn3c(C)nc4ncccc43)cc1)cn2C(=O)N(C)C [1-Dimethylcarbamoyl-3-[4-(2-methyl-imidazo[4,5-b]pyridin-1-ylmethyl)-benzoyl]-1H-indole-4-carboxylic acid methyl ester]	2.9
COC(=O)c1cccc2c1c(C(=O)c1ccc(Cn3c(C)nc4c(Cl)nccc43)cc1)cn2C(=O)N(C)C [3-[4-(4-Chloro-2-methyl-imidazo[4,5-c]pyridin-1-ylmethyl)-benzoyl]-1-dimethylcarbamoyl-1H-indole-4-carboxylic acid methyl ester]	1.8
Cc1nc2cnccc2n1CCN1CCN(S(=O)(=O)c2cn(C(=O)N(C)C)c3cc(-c4ccc(F)cc4)ccc23)CC1 [6-(4-Fluoro-phenyl)-3-{4-[2-(2-methyl-imidazo[4,5-c]pyridin-1-yl)-ethyl]-piperazine-1-sulfonyl}-indole-1-carboxylic acid dimethylamide]	53
COc1cccc2c1c(C(=O)c1ccc(Cn3c(C)nc4cnccc43)cc1)cn2C(=O)N(C)C [4-Methoxy-3-[4-(2-methyl-imidazo[4,5-c]pyridin-1-ylmethyl)-benzoyl]-indole-1-carboxylic acid dimethylamide]	2
COC(=O)c1cccc2c1c(C(=O)C1CCC(Cn3c(C)nc4cnccc43)CC1)cn2C(=O)N(C)C (stereo not drawn) [1-Dimethylcarbamoyl-3-[4-(2-methyl-imidazo[4,5-c]pyridin-1-ylmethyl)-cyclohexanecarbonyl]-1H-indole-4-carboxylic acid methyl ester]	2.4
CNC(=O)n1cc(C(=O)c2ccc(Cn3c(C)nc4cnccc43)cc2)c2c(C(=O)OC)cccc21 [1-Methylcarbamoyl-3-[4-(2-methyl-imidazo[4,5-c]pyridin-1-ylmethyl)-benzoyl]-1H-indole-4-carboxylic acid methyl ester]	1.5
COC(=O)c1cccc2c1c(C(=O)c1ccc(Cn3c(C)nc4cnccc43)cc1)cn2C(=O)N1CCCC1 [3-[4-(2-Methyl-imidazo[4,5-c]pyridin-1-ylmethyl)-benzoyl]-1-(pyrrolidine-1-carbonyl)-1H-indole-4-carboxylic acid methyl ester]	11
COC(=O)c1cccc2c1c(C(=O)CCCCCn1c(C)nc3cnccc31)cn2C(=O)N(C)C [1-Dimethylcarbamoyl-3-[6-(2-methyl-imidazo[4,5-c]pyridin-1-yl)-hexanoyl]-1H-indole-4-carboxylic acid methyl ester]	6.1
Cc1cccc2c1c(C(=O)CN1CCC(n3c(C)nc4cnccc43)CC1)cn2C(=O)N(C)C [4-Methyl-3-{2-[4-(2-methyl-imidazo[4,5-c]pyridin-1-yl)-piperidin-1-yl]-acetyl}-indole-1-carboxylic acid dimethylamide]	2
COC(=O)c1cccc2c1c(C(=O)c1ccc(Cn3c(C)nc4cnccc43)cc1)cn2S(=O)(=O)N(C)C [1-Dimethylsulfamoyl-3-[4-(2-methyl-imidazo[4,5-c]pyridin-1-ylmethyl)-benzoyl]-1H-indole-4-carboxylic acid methyl ester]	4.3
COC(=O)c1cccc2c1c(C(=O)CCCCCCn1c(C)nc3cnccc31)cn2C(=O)N(C)C [1-Dimethylcarbamoyl-3-[7-(2-methyl-imidazo[4,5-c]pyridin-1-yl)-heptanoyl]-1H-indole-4-carboxylic acid methyl ester]	9.4

assay: The compound was evaluated for its binding affinity against PAF receptor in rabbit platelet

SMILES	Ki [nM]
CC(=O)OC[n+]1cccc([C@H]2SCc3c(C(=O)c4cn(C(=O)N(C)C)c5cc(-c6ccc(F)cc6)ccc45)ccn32)c1 [1-Acetoxymethyl-3-{(R)-7-[1-dimethylcarbamoyl-6-(4-fluoro-phenyl)-1H-indole-3-carbonyl]-1H-pyrrolo[1,2-c]thiazol-3-yl}-pyridinium; chloride]	3.8
